According to patent publication US10654866B2, “Selective estrogen receptor degraders” (Eli Lilly and Company, priority 2018, dated 2020):

Columns and labels:
[1] = target: ERα (wild type) (Homo sapiens (Human), UniProt P03372); assay: ERα (wild type) competition binding assay; details: 3H-estradiol competition; Ki from IC50 by Cheng-Prusoff
Description: (§1) Add the test compound at 10 different concentrations ranging from 10,000 nM to 0.5 nM, and determine nonspecific binding in the presence of 1 μM of 1713 estradiol. Incubate the binding reaction (140 μL) for 4 hours at room temperature, and then add cold dextran-charcoal buffer (70 μL) (containing per 50 mL of assay buffer, 0.75 g of charcoal and 0.25 g of dextran) to each reaction. Mix the plates for 8 minutes on an orbital shaker at 4° C. and then centrifuge at 3000 rpm at 4° C. for 10 minutes. Transfer an aliquot (120 μL) of the mixture to another 96-well, white flat bottom plate (Costar) and add Perkin Elmer Optiphase Supermix scintillation fluid (175 μL) to each well. Seal the plates and shake vigorously on an orbital shaker. After an incubation of 2.5 hours, read the plates in a Wallac Microbeta counter. […] Convert the IC50 values for the compound to Ki using Cheng-Prusoff equation.

[2] = target: ERα (Y537S mutant) (Homo sapiens (Human), UniProt P03372, Y537S); assay: ERα (Y537S mutant) competition binding assay; details: 3H-estradiol competition; Ki from IC50 by Cheng-Prusoff
Description: as §1

[3] = target: T1, ERα (Homo sapiens (Human), UniProt P03372); assay: ERα degradation assay in MCF7 cells; assay type: cell-based; details: 24 hours, % ER positive cells, read-out: Relative IC50
Description: The purpose of the following ERα degradation assay is to measure the degradation of ERα by a test compound in an ERα positive breast cancer cell line such as MCF7.
Culture MCF7 (purchased from ATCC HTB-22) cells in DMEM media supplemented with 10% FBS, 0.01 mg/mL human insulin 1 and 1% penicillin/streptomycin antibiotics and plate in 384-well flat-bottom plates at a density of 4,000 cells per well in phenol red free DMEM media (20 μL) containing 10% charcoal stripped FBS. Incubate the cells overnight in a cell culture incubator (5% CO2, 95% relative humidity and 37° C.) and allow the cells to attach to the plate. The following day dose the cells with the test compound. Use an Echo 555 acoustic dispenser to prepare test compound serial dilutions (1:3) in a range from 6 μM to 0.0003 μM. Dose the cells with the addition of 5 μL from the serial dilution plate to the cell plate producing a final DMSO concentration of 0.2% with a final test compound concentration dose range between 2 and 0.0001 μM. For the maximum point, use media containing 0.2% of DMSO and for the minimum point, use fulvestrant diluted at 2 μM final concentrations in the growth media containing 0.2% DMSO. After dosing with the test compound, incubate the cell plates at 37° C. and 5% CO2 for 24 hours. Fix the cells by adding 14% para-formaldehyde (10 μL) for 30 minutes at room temperature. Wash the cells once with PBS (20 μL) and incubate with PBS (20 μL) containing 0.5% (v/v) TWEEN® 20 for 1 hour. Wash the cells with PBS containing 0.05% TWEEN® 20 (2×) and block with 3% BSA in PBS containing 0.05% TWEEN® 20 and 0.1% TRITON™ X-100 (20 μL/well) for 1 hour at room temperature. Add 1:500 Primary antibody (20 μL) (ERα (Clone SP1) monoclonal rabbit antibody # RM-9101-S, Thermo Scientific) dilution in 1% BSA in PBS containing 0.05% TWEEN® 20 per well, seal the plates and incubate overnight at 4° C. The following day wash the cells with PBS containing 0.05% TWEEN® 20 (2×) and incubate with secondary antibody (20 μL/well) (1:1000 dilution, Goat anti-rabbit IgM ALEXA FLUOR™ 488) in PBS 1% BSA for 105 minutes at room temperature. […] Seal the plates and incubate 1 hour at room temperature on the bench (preserved from light). Scan the plates with ACUMEN EXPLORER™ [Laser-scanning fluorescence microplate cytometer manufactured by TTP LABTECH LTD] to measure ERα. Image analysis is based on cellular fluorescent signals for identifying positive cells. Identify ER positive cells by mean intensity. Use total intensity at 575-640 nm from propidium iodide/DNA to identify individual cells. Assay output is % ER positive cells. Determine the IC50 by curve fitting to a four parameter logistic for each output using GENE DATA™.

[4] = target: Y537N mutant ERα receptor (Homo sapiens, UniProt P03372, Y537N); assay: PRα inhibition (ERα functional antagonism) cell assay in MCF7-ESR1 Y537N 682 CRISPR cells; assay type: cell-based; details: MCF7 Y537N 682 CRISPR cells, 72 hours, % PR positive cells; read-out: Relative IC50
Description: An antagonist in this assay is expected to block the function of the ERα receptor.
Incubate the cells overnight in a cell culture incubator (5% CO2, 95% relative humidity and 37° C.) and allow the cells to attach to the plate. The following day dose the cells with the test compound. Use an Echo 555 acoustic dispenser to prepare compound serial dilutions (1:3) in a range from 6 μM to 0.0003 μM. Dose the cells with the addition of 5 μL from the serial dilution plate to the cell plate producing a final DMSO concentration of 0.2% with a final test compound concentration dose range between 2 and 0.0001 μM. For the maximum point use media containing 0.2% of DMSO and for the minimum point, use fulvestrant diluted at 2 μM final concentrations in the growth media containing 0.2% DMSO. After dosing with test compound, incubate the cell plates at 37° C. and 5% CO2 for 72 hours. Fix the cells by adding 14% para-formaldehyde (10 μL) for 30 minutes at room temperature. Wash the cells with PBS (1×20 μL) and incubate with PBS (20 μL) of containing 0.5% (v/v) TWEEN® 20 for 1 hour. Wash the cells with PBS (2×20 μL) 0.05% TWEEN® 20, and block with 3% BSA/PBS 0.05% TWEEN® 20, 0.1% TRITON™ X-100 (20 μL/well) for 1 hour at room temperature. Add 1:500 primary antibody (20 μL) (PR monoclonal mouse anti-human antibody, clone PgR 636 Dako, M3569) dilution in 1% BSA/PBS 0.05 TWEEN® 20 per well, seal the plates and incubate overnight at 4° C.
The following day, wash the cells with PBS […] (2×20 μL) and incubate with secondary antibody (20 μL/well) (1:1000 dilution, Goat anti-rabbit IgM ALEXA FLUOR™ 488) in PBS 1% BSA for 105 minutes at room temperature. […] Seal the plates and incubate 1 hour at room temperature on the bench (preserved from light). Scan the plates with ACUMEN EXPLORER™ [Laser-scanning fluorescence microplate cytometer manufactured by TTP LABTECH LTD] to measure PRα. Image analysis is based on cellular fluorescent signals for identifying positive cells. Identify PR positive cells by mean intensity. Use total intensity at 575-640 nm from propidium iodide/DNA to identify individual cells. Assay output is % PR positive cells. Determine the IC50 by curve fitting to a four parameter logistic for each output using GENE DATA™.

[5] = target: T1, ERα; assay: PRα inhibition (ERα functional antagonism) cell assay in MCF7 cells; assay type: cell-based; details: MCF7 cells pretreated with 0.47 nM estradiol, % PRα positive cells; read-out: Relative IC50
Source text: The purpose of the following PRα inhibition (ERα functional antagonism) cell assay is to determine the antagonistic activity of a test compound against the ERα receptor. An antagonist in this assay is expected to block the function of the ERα receptor.
Carry out the assay conditions as detailed in the ERα degradation Cell base Acumen assay above, using the MCF7 cell line except that, prior to test compound dispensing, remove the media from the cell plate and pretreat all wells except for the negative control wells (column 24 of the plate) with assay media containing 0.47 nM estradiol for 30 minutes. In this assay, carry out immunostaining for the detection of PRα and scan the plates with ACUMEN EXPLORER™ [Laser-scanning fluorescence microplate cytometer manufactured by TTP LABTECH LTD] to measure PRα. Image analysis is based on cellular fluorescent signals for identifying positive cells. Identify PRα positive cells by mean intensity. Use total intensity at 575-640 from propidium iodide/DNA to identify individual cells. Assay output is % PRα positive cells. Determine the IC50 by curve fitting to a four parameter logistic for each output using GENE DATA™.

[6] = test system: MCF7 ER-positive breast cancer model; assay: In vivo combination studies in MCF7 ER-positive breast cancer xenograft model; set-up: species or system mice; details: for Difference (Treatment 1 − Treatment 2): Treatment 1 = Vehicle, log10 tumor volume
Source text: Otherwise, the statistical conclusion is additive.

T1 sequence (P03372 whole entry): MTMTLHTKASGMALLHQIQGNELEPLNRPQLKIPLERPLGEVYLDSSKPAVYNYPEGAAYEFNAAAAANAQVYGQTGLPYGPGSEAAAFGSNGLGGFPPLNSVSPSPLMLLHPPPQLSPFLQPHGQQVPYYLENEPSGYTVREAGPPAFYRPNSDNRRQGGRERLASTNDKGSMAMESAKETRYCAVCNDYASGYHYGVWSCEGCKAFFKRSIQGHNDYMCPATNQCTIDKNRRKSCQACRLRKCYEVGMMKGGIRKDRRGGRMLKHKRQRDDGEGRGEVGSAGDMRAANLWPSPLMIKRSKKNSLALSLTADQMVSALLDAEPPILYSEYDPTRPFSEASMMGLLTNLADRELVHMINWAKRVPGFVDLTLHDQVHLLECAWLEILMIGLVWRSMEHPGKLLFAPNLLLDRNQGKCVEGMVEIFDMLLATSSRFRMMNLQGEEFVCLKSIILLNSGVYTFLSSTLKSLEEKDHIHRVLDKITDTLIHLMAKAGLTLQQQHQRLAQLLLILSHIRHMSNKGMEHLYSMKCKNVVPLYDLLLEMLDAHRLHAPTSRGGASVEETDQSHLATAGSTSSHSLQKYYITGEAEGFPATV
ERα (wild type), sequence (P03372 whole entry): as above
ERα (Y537S mutant), sequence (P03372 whole entry Y537S): as the sequence (P03372 whole entry) above, with Y537S counted along it

SMILES	Ki [1]	Ki [2]	DC50 [3]	IC50 [4]	further results
Oc1ccc2c3c(cnc2c1)-c1ccc(Cl)cc1OC3c1ccc(OCCN2CC(CF)C2)cc1 (racemic) [Example 3, 8-chloro-5-(4-{2-[3-(fluoromethyl)azetidin-1-yl]ethoxy}phenyl)-5H-[1]benzopyrano[4,3-c]quinolin-2-ol]	2.36 nM	6.69 nM	33.5 ± 7.83 nM	77.2 ± 11.5 nM	–
Oc1ccc2c3c(cnc2c1)-c1ccc(Cl)cc1OC3c1ccc(OCCN2CC(CF)C2)cc1 (single isomer, unassigned) [Example 3A, 8-Chloro-5-(4-{2-[3-(fluoromethyl)azetidin-1-yl]ethoxy}phenyl)-5H-[1]benzopyrano[4,3-c]quinolin-2-ol]	8.11 nM	27.2 nM	390 nM	612 nM	IC50 [5]: 927 nM
Oc1ccc2c3c(cnc2c1)-c1ccc(Cl)cc1OC3c1ccc(OCCN2CC(CF)C2)cc1 (single isomer, unassigned) [Example 3B, 8-Chloro-5-(4-{2-[3-(fluoromethyl)azetidin-1-yl]ethoxy}phenyl)-5H-[1]benzopyrano[4,3-c]quinolin-2-ol]	0.59 nM	2.79 nM	8.66 nM	16 nM	IC50 [5]: 34.4 nM
CCN1CCN(Cc2ccc(Nc3ncc(F)c(-c4cc(F)c5nc(C)n(C(C)C)c5c4)n3)nc2)CC1 [Abemaciclib, abemaciclib, reference compound]	–	–	–	–	Delta T/C % or % Regression ([6]; Example 1B 10 mpk, Abemaciclib 50 mpk, QD × 42, PO (Table 16)): −52%; Delta T/C % or % Regression ([6]; Example 10 15 mpk, Abemaciclib 50 mpk, QD × 42, PO (Table 20)): −70%; Difference (Treatment 1 − Treatment 2) ([6]; Example 1B 10 mpk, Abemaciclib 50 mpk, QD × 42, PO): 0.479; Difference (Treatment 1 − Treatment 2) ([6]; Example 10 15 mpk, Abemaciclib 50 mpk, QD × 42, PO): 0.445
CO[C@@H](C)Cn1c(=O)n(C)c2cnc3ccc(-c4cncc(C(C)(C)O)c4)cc3c21 [Compound A, 8-[5-(1-hydroxy-1-methylethyl)pyridin-3-yl]-1-[(2 S)-2-methoxypropyl]-3-methyl-1,3-dihydro-2H-imidazo[4,5-c]quinolin-2-one, reference compound]	–	–	–	–	Delta T/C % or % Regression ([6]; Example 1B 10 mpk QD × 42, Compound A 7.5 mpk BID × 42, PO (Table 18)): −36%; Difference (Treatment 1 − Treatment 2) ([6]; Example 1B 10 mpk QD × 42, Compound A 7.5 mpk BID × 42, PO): 0.504
CO[C@H]1C[C@@H]2CC[C@@H](C)[C@@](O)(O2)C(=O)C(=O)N2CCCC[C@H]2C(=O)O[C@H]([C@H](C)C[C@@H]2CC[C@@H](OCCO)[C@H](OC)C2)CC(=O)[C@H](C)/C=C(\C)[C@@H](O)[C@@H](OC)C(=O)[C@H](C)C[C@H](C)/C=C/C=C/C=C/1C [Everolimus, everolimus, reference compound]	–	–	–	–	Delta T/C % or % Regression ([6]; Example 10 15 mpk, Everolimus 5 mpk, QD × 42, PO (Table 24)): −50%; Difference (Treatment 1 − Treatment 2) ([6]; Example 10 15 mpk, Everolimus 5 mpk, QD × 42, PO): 0.433
Cc1nc(NC(=O)N2CCC[C@H]2C(N)=O)sc1-c1ccnc(C(C)(C)C(F)(F)F)c1 [alpelisib, reference compound]	–	–	–	–	Delta T/C % or % Regression ([6]; Example 10 15 mpk, alpelisib 15 mpk (d1-d7), 10 mpk (d8-42), QD × 42, PO (Table 22)): −21%; Difference (Treatment 1 − Treatment 2) ([6]; Example 10 15 mpk, alpelisib 15 mpk (d1-d7), 10 mpk (d8-42), QD × 42, PO): 0.445
